Earlier results in US6867197B1, “Method of targeting conjugate molecules to mitochondria” (Mitokor, priority 1995, dated 2005).

Tested on: mitochondria
Conditions: high concentrations; NAO is a mitochondrial toxin at these concentrations

## CCCCCCCCC[n+]1c2cc(N(C)C)ccc2cc2ccc(N(C)C)cc21 [NAO, 10N-nonylacridine orange]
  concentrations at which electron transport, ATP hydrolysis and Pi-transport are inhibited and respiration disrupted: 3 to 10 µM
